Broadly, the IC50 is the midpoint of a concentration-inhibition curve. The AC50 is the concentration giving half of the maximal activity seen.

SMILES strings stand for the structures. Like-named read-outs stand apart in the source and are kept apart here.

The record followed here is patent publication US20250092065A1, “2-(INDAZOL-5-YL)-6-(PIPERIDIN-4-YL)-1,7-NAPHTHYRIDINE DERIVATIVES AND RELATED COMPOUNDS AS MODULATORS FOR SPLICING NUCLEIC ACIDS AND FOR THE TREATMENT OF PROLIFERATIVE DISEASES” (REMIX THERAPEUTICS INC., priority 2022, published 2025).

The subject of one data set is K562 cells. As to the kind of experiment: Cell Titer Glo 2.0 cell viability (toxicity) assay, K562. Particulars: 500 cells/well, 72 hours. (In general: Cellular ATP, detected with luciferase, serves as a proxy for viable cell number.)
In another data set the test system is MYB. As to the kind of experiment: HiBiT protein abundance assay, MYB (K562 HiBiT knock-in). Type of data set: cell-based, human. Particulars: HiBiT knock-in K562 cells, 24 hours, top dose 10 μM. The protocol: (§1) Compounds described herein were used to screen for effects on quantitative protein abundance using a HiBit assay system (Promega). Quantitative protein abundance was determined by measuring the protein levels of HiBit-tagged protein targets expressed in cell culture via luminescence using the Nano-Glo HiBiT Lytic Detection System, which uses a split complementation assay format to reconstitute NanoBiT enzyme to generate a luminescent signal. A protein abundance assay was developed such that endogenous protein targets could be modified with the HiBiT peptide tag and their abundance could be assessed after compound treatment. Briefly, K562 cell lines containing a HiBiT-modification were treated with various compounds described herein (e.g., compounds of Formulas (I), or (II)). After treatment for 24 hours, the protein abundance of a specific target was determined by measuring luminescence.
(§2) Cells were maintained in IMIDM with 10% FBS. Before the assay, cells were diluted with […] growth media (IMIDM+[…] media) and were seeded in a 384-well plate at a density of 10000 cells/well (for each cell line listed in Table 6). Each compound was prepared as a 10-point 3-fold serial dilution in DMSO with the top dose at a final concentration of 10 μM in the well. Unmodified K562 cells were added at the previously specified density with DMSO to serve as an assay baseline and positive control (PC) and DMSO only with the respective modified cell lines was added to the negative control (NC) columns. Final DMSO concentration was kept at or below 0.25%. Treated cell plates were placed in an incubator at 37° C. with […] for 24 hours. After 24 hours, 25 μL of Complete HiBit Lytic reagent was added to each well at room temperature (e.g. one plate requiring 10 mL Lytic Buffer, 100 μL LgBiT Protein, 200 μL Lytic Substrate), shaken for 5 minutes at 600 RPM, then left to sit for 10 minutes for signal to stabilize before reading on a Spark Cyto plate reader (Tecan) with a 500 ms measurement time.
(§3) To determine compound effects on protein abundance of each target in Table 6, the percent response for each respective cell line was calculated at each compound concentration as follows:
(§4) % response=100*(S−PC)(NC−PC)
(§5) For the normalized response at each concentration, a four-parameter logistical regression was fit to the data and the response was interpolated at the […] to determine a concentration for protein abundance at 50% (IC50) the untreated control.
(HiBiT is a short tag that completes a luciferase, so light tracks the accessible tagged protein.)

In a further data set the test system is MYB mRNA. As to the kind of experiment: RT-qPCR splicing assay, MYB mRNA canonical (CJ) and alternative (AJ) junction. In kind it is cell-based, human. Particulars: Homo sapiens; for AC50: MYB alternative junction mRNA, read-out: MYB AJ (increase in AJ mRNA, AC50). The gist of the method:
(§6)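 Junction-specific RT-qPCR read-out: CJ and AJ isoform levels, housekeeper-normalized (GAPDH/GUSB/PPIA), ΔΔCt vs DMSO, converted to RQ then % response. Cells: A673 (DMEM/10% FBS, adhered 24 h) or K562 (IMDM/10% FBS). Compound 11-pt 3-fold, top 10 uM, 24 h, 37 °C.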
(Real-time PCR tracks product formation cycle by cycle.)

The next data set relates to HTT mRNA. As to the kind of experiment: RT-qPCR splicing assay, HTT mRNA canonical (CJ) and alternative (AJ) junction. Type of data set: cell-based, human. Particulars: Homo sapiens; for AC50: HTT alternative junction mRNA, read-out: HTT AJ (increase in AJ mRNA, AC50). The essentials: as §6
A further data set relates to HTT. In words: HiBiT protein abundance assay, HTT (K562 HiBiT knock-in). Type of data set: cell-based, human. Particulars: HiBiT knock-in K562 cells, 24 hours, top dose 10 μM. The protocol:
as §1, §2, §3, §4, §5

In a further data set the test system is Target C. As to the kind of experiment: HiBiT protein abundance assay, Target C (K562 HiBiT knock-in). Type of data set: cell-based, human. Particulars: HiBiT knock-in K562 cells, 24 hours, top dose 10 μM. The method, then:
as §2, §3, §4, §5

The test system of the next data set is SMN2 mRNA. As to the kind of experiment: RT-qPCR splicing assay, SMN2 mRNA. In kind it is cell-based, human. Particulars: Homo sapiens, canonical junction qPCR panel, Table 4; read-out: SMN2 IC50 (decrease in CJ mRNA levels). The essentials:
as §6

Where [1] appears, read: MYB canonical junction mRNA, RT-qPCR, read-out: MYB CJ (decrease in CJ mRNA levels, IC50).
Setting [2] is: canonical junction qPCR panel, Table 4, read-out: MYB IC50 (decrease in CJ mRNA levels).
The mark [3] stands for this setting: HTT canonical junction mRNA, RT-qPCR, read-out: HTT CJ (decrease in CJ mRNA levels, IC50).
[4] abbreviates: canonical junction qPCR panel, Table 4, read-out: HTT IC50 (decrease in CJ mRNA levels).

Consider `Cn1cc2c(O)c(-c3ncc4nc(C5CCNCC5)ccc4n3)ccc2n1` [Compound 108], for which, in the data set with K562 cells, the “Effect of Exemplary Compounds on Cell Viability, K562” value (from here on “Effect of Exemplary Compounds”) is “B (B represents 100-1000 nM)”. For the same compound, the IC50 in the data set with MYB fell in the range of 100 to 1000 nM; in the data set with MYB mRNA (setting [1]), 1000 to 10000 nM; in the data set with MYB mRNA (setting [2]), 1000 to 10000 nM; with HTT mRNA (setting [3]), 1000 to 10000 nM; in the data set with HTT mRNA (setting [4]) it was 1000 to 10000 nM; in the data set on HTT, 100 to 1000 nM. For the same compound, the IC50 was 100 to 1000 nM with Target C and under 100 nM in the data set on SMN2 mRNA. For the same compound, the AC50 with MYB mRNA (RT-qPCR) and with HTT mRNA (RT-qPCR) was 1000 to 10000 nM in each case.

For the compound `Cn1cc2cc(-c3ccc4cc(C5CCNCC5)ccc4n3)c(O)cc2n1` [Compound 109], the “Effect of Exemplary Compounds” value in the data set with K562 cells is given as “B (B represents 100-1000 nM)”. The IC50 in the data set on MYB, in the data set with MYB mRNA (setting [1]), in the data set on MYB mRNA (setting [2]), with HTT mRNA (setting [3]), in the data set on HTT mRNA (setting [4]) and with HTT was under 100 nM each time. In addition, the IC50 in the data set with Target C and in the data set with SMN2 mRNA was under 100 nM each time. Also, the AC50 with MYB mRNA (RT-qPCR) and in the data set on HTT mRNA (RT-qPCR) was 100 to 1000 nM each time.

For the compound `Cn1cc2cc(-c3ccc4c(F)c(C5CCNCC5)ccc4n3)c(O)cc2n1` [Compound 115], the “Effect of Exemplary Compounds” value with K562 cells is recorded as “B (B represents 100-1000 nM)”. In addition, the IC50 in the data set with MYB was under 100 nM; with MYB mRNA (setting [1]), 100 to 1000 nM; with MYB mRNA (setting [2]), 100 to 1000 nM; with HTT mRNA (setting [3]), 1000 to 10000 nM; in the data set with HTT mRNA (setting [4]), 1000 to 10000 nM; in the data set with HTT it was 100 to 1000 nM. The results for the IC50 in the data set with Target C and in the data set with SMN2 mRNA were 100 to 1000 nM and under 100 nM, respectively. For the same compound, the AC50 with MYB mRNA (RT-qPCR) lay within 100 to 1000 nM; in the data set with HTT mRNA (RT-qPCR), 1000 to 10000 nM.

For the compound `CN1CCN(c2ccc3nc(-c4cc5cn(C)nc5cc4O)ccc3n2)CC1` [Compound 116], the “Effect of Exemplary Compounds” value in the data set on K562 cells is recorded as “C (C represents 1000-9999 nM)”. Besides, the IC50 with MYB lay within 1000 to 10000 nM; with MYB mRNA (setting [1]) it was 100 to 1000 nM; with MYB mRNA (setting [2]) it was 100 to 1000 nM; with HTT mRNA (setting [3]), 1000 to 10000 nM; in the data set with HTT mRNA (setting [4]), 1000 to 10000 nM; in the data set on HTT, 1000 to 10000 nM. The IC50 was 1000 to 10000 nM in the data set on Target C and under 100 nM with SMN2 mRNA. Also, the AC50 with MYB mRNA (RT-qPCR) and in the data set on HTT mRNA (RT-qPCR) was 1000 to 10000 nM in each case.

As to `CC1CN(c2ccc3nc(-c4cc5cn(C)nc5cc4O)ccc3n2)CCN1` (stereo not drawn) [Compound 117], in the data set on K562 cells, the “Effect of Exemplary Compounds” value is reported as “B (B represents 100-1000 nM)”. The half-inhibitory concentration (IC50) in the data set with MYB lay in the range of 100 to 1000 nM; in the data set on MYB mRNA (setting [1]), 100 to 1000 nM; in the data set with MYB mRNA (setting [2]), 100 to 1000 nM; in the data set on HTT mRNA (setting [3]), 1000 to 10000 nM; in the data set on HTT mRNA (setting [4]), 1000 to 10000 nM; with HTT it was 100 to 1000 nM. Also, the values for the IC50 in the data set on Target C and with SMN2 mRNA were 1000 to 10000 nM and under 100 nM, respectively. Besides, the AC50 was 100 to 1000 nM in the data set with MYB mRNA (RT-qPCR) and 1000 to 10000 nM in the data set with HTT mRNA (RT-qPCR).

For the compound `CC1CN(c2ccc3nc(-c4cc5cn(C)nc5cc4O)ccc3n2)CCN1C` (stereo not drawn) [Compound 118], the “Effect of Exemplary Compounds” value in the data set with K562 cells was “C (C represents 1000-9999 nM)”. Also, the concentration for half-maximal inhibition (IC50) lay in the range of 100 to 1000 nM in the data set on MYB; 100 to 1000 nM in the data set on MYB mRNA (setting [1]); 100 to 1000 nM in the data set with MYB mRNA (setting [2]); 1000 to 10000 nM with HTT mRNA (setting [3]); 1000 to 10000 nM with HTT mRNA (setting [4]); 1000 to 10000 nM with HTT. The values for the IC50 with Target C and with SMN2 mRNA were over 10000 nM and under 100 nM, respectively. Besides, the AC50 in the data set on MYB mRNA (RT-qPCR) and with HTT mRNA (RT-qPCR) was 1000 to 10000 nM in each case.
